Assay results: PubChem BioAssay (NCI)
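Where inhibition never reached the appropriate level, the endpoint shown equals the highest concentration tested. Otherwise, values were interpolated linearly from a five-concentration, 48-hour dose response in 96-well plates. GI50 is the concentration that inhibits growth by half. TGI is the concentration that stops growth completely.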

Assays:
Experiment in all cases: inhibition of tumour cell growth, NCI panel, 48 h
[1] = test system: TK-10 renal
[2] = test system: HCC-2998 colon
[3] = test system: UO-31 renal
[4] = test system: SF-268 CNS
[5] = test system: SK-OV-3 ovarian
[6] = test system: A549 NSCLC
[7] = test system: HOP-62 NSCLC
[8] = test system: RXF 393 renal
[9] = test system: K-562 leukemia
[10] = test system: SNB-75 CNS
[11] = test system: MOLT-4 leukemia
[12] = test system: SW-620 colon
[13] = test system: MALME-3M melanoma
[14] = test system: M14 melanoma
[15] = test system: T-47D breast
[16] = test system: MDA-MB-231 breast
[17] = test system: SR leukemia
[18] = test system: PC-3 prostate

Row | Compound | TGI [1] | TGI [2] | TGI [3] | TGI [4] | TGI [5] | TGI [6] | TGI [7] | TGI [8] | TGI [9] | TGI [10] | TGI [11] | TGI [12] | TGI [13] | TGI [14] | TGI [15] | TGI [16] | TGI [17] | TGI [18] | GI50 [4] | GI50 [5]
1 | COc1ccc2[nH]c3c(c2c1)[C@H]1CCC(C(C)(C)C)C[C@H]1[C@H]1C(=O)N(c2ccccc2)C(=O)[C@@H]31 (stereo partly drawn) | > 74.1 µM | > 100 µM | 97.5 µM | > 48.2 µM | 44.9 µM | > 75.8 µM | 38.3 µM | 26.5 µM | > 91.5 µM | 14.6 µM | > 71.2 µM | > 100 µM | 40.4 µM | 30.6 µM |  |  |  |  |  | 
2 | Cc1ccc(S(=O)(=O)N2CCNCCN(S(=O)(=O)c3ccc(C)cc3)CCNCC2)cc1 | 44 µM | 33.4 µM | 62.6 µM | 55 µM | 41.1 µM | > 100 µM | 34.8 µM | 14.7 µM | 31.4 µM | 42.8 µM |  | > 100 µM | 33.1 µM | 34.7 µM | 31.7 µM | 60.4 µM | 34.1 µM |  |  | 
3 | O=C(NCCN1CCCCC1)c1cccc(I)c1 | > 100 µM | > 100 µM | > 100 µM | > 100 µM | > 100 µM | > 100 µM |  | > 100 µM | > 100 µM | > 100 µM | > 100 µM | > 100 µM |  | > 100 µM |  |  | > 100 µM | > 100 µM |  | 
4 | COc1cc(C2c3cc4c(cc3C(=O)C3CCC(=O)N32)OCO4)cc(OC)c1O (stereo not drawn) |  |  | > 50 µM |  | > 50 µM | > 50 µM | > 50 µM | > 50 µM | > 50 µM | > 50 µM | > 50 µM | > 50 µM |  | > 50 µM | > 50 µM |  | > 50 µM | > 50 µM |  | 
5 | O=[N+]([O-])c1cccc(Nc2nc(Cl)nc(Cl)n2)c1 |  | > 100 µM | > 100 µM | > 100 µM | > 100 µM | > 100 µM | > 100 µM |  | > 100 µM | > 100 µM | > 100 µM | > 100 µM | > 100 µM | > 100 µM |  |  | > 100 µM |  |  | 
6 | O=c1oc2c3ccc4ccccc4c3n(CCN3CCCCC3)c2c2ccccc12 | > 100 µM | > 100 µM | > 100 µM | > 68.7 µM | > 78.5 µM | > 100 µM | 58.9 µM | 29.3 µM | > 100 µM | 19.6 µM | > 100 µM | > 100 µM | > 88.6 µM | > 100 µM |  |  | > 100 µM |  |  | 
7 | Cc1ccc(S(=O)(=O)N/N=C2/CCC3(O)CC2(C)CCC2[C@H]3CC2(C)C)cc1 (stereo partly drawn) | > 100 µM |  | 68.6 µM | > 100 µM | > 100 µM | > 100 µM | > 100 µM |  | 90.7 µM | 87.3 µM | 45.2 µM | > 100 µM | > 100 µM | > 100 µM | > 100 µM |  | > 100 µM | 65.1 µM |  | 
8 | CCCCCCCCC(O)c1ccc(/C=C\C(O)CCCC(=O)O)s1 (stereo not drawn) | > 100 µM | > 100 µM | > 100 µM | > 100 µM | > 100 µM | > 100 µM |  | > 100 µM | > 100 µM | > 100 µM | > 100 µM | > 100 µM | > 100 µM | > 100 µM |  |  | > 100 µM |  |  | 
9 | CCSC1=N/C(=C\c2ccco2)C(=O)N1 | > 100 µM |  | > 100 µM | > 100 µM | > 100 µM | > 100 µM | > 100 µM |  | > 100 µM | > 100 µM | > 100 µM | > 100 µM | > 100 µM | > 100 µM |  | > 100 µM | > 100 µM | > 100 µM |  | 
10 | O=c1c(Sc2c(SCSc3cnc4ccccc4c3Sc3c[nH]c4ccccc4c3=O)cnc3ccccc23)c[nH]c2ccccc12 | > 100 µM | > 100 µM | > 100 µM | > 100 µM |  |  | > 100 µM |  |  | > 100 µM | > 100 µM | > 100 µM |  | > 100 µM | > 100 µM | > 100 µM | 25 µM |  |  | 
11 | COC(=O)C(=O)C(C(=O)C(=O)Nc1ccc(C)cc1C)c1nc2ccc(Cl)cc2[nH]c1=O (stereo not drawn) | > 100 µM | > 100 µM | > 100 µM | > 100 µM | > 100 µM | > 100 µM | > 100 µM | > 100 µM |  | > 100 µM | > 100 µM | > 100 µM |  | > 100 µM |  | > 100 µM |  | > 100 µM |  | 
12 | Cc1ccc(-c2cc(-c3ccccc3)c(C#N)c(=O)[nH]2)cc1 | > 100 µM | > 100 µM | > 100 µM | > 100 µM | > 100 µM | > 100 µM | > 100 µM | > 100 µM | > 100 µM | > 100 µM | > 100 µM | > 100 µM | > 100 µM | > 100 µM |  |  | > 100 µM |  |  | 
13 | COc1ccc(/C=C\c2cc(OC)c(OC)c(OC)c2)cc1 |  |  | 8.66 µM | > 100 µM | > 100 µM | > 100 µM | > 100 µM |  | > 100 µM | 0.000932 µM | 3.09 µM |  | > 100 µM | > 100 µM |  |  | 78.7 µM |  | 0.0443 µM | 99.3 µM
14 | Cc1ccc(-c2cn3c(nc4ccccc43)c(/C=C/c3ccco3)n2)cc1 | > 100 µM | > 100 µM | > 100 µM | > 100 µM | > 100 µM | > 100 µM | > 100 µM | > 100 µM | > 100 µM | > 100 µM |  | > 100 µM | > 100 µM | > 100 µM | > 100 µM | > 100 µM | 89 µM |  |  | 
15 | COc1ccc(-c2nc(-c3cnccn3)n(C3OC(CO)C(O)C3O)n2)cc1 (stereo not drawn) | > 10 µM | > 10 µM | > 10 µM | > 10 µM | > 10 µM | > 10 µM |  |  | > 10 µM | > 10 µM | > 10 µM | > 10 µM | > 10 µM | > 10 µM |  |  | > 10 µM | > 10 µM |  | 
16 | Cc1c(-c2ccccc2)[nH]c2cn[nH]c(=O)c12 | > 100 µM | > 100 µM | > 100 µM | > 100 µM | > 100 µM | > 100 µM | > 100 µM |  | > 100 µM |  | > 100 µM | > 100 µM | > 100 µM | > 100 µM |  | > 100 µM | > 100 µM | > 100 µM |  | 
